The record followed here is paper PMC6199744, “Development of Chemical Proteomics for the Folateome and Analysis of the Kinetoplastid Folateome” (ACS Infectious Diseases, 2018).

Where two headings read alike, the source gives them in different places.

Holding throughout (assay type): binding
Assay [1] addresses T1, HeLa cell extract proteins (Homo sapiens, UniProt Q99873).
T1 construct: endogenous in cells; host or cells: HeLa cell extract

In assay [2] the target is T2, HeLa cell extract proteins (Homo sapiens, UniProt O15027).
T2 construct: endogenous in cells; host or cells: HeLa cell extract
T2 sequence (O15027 whole entry): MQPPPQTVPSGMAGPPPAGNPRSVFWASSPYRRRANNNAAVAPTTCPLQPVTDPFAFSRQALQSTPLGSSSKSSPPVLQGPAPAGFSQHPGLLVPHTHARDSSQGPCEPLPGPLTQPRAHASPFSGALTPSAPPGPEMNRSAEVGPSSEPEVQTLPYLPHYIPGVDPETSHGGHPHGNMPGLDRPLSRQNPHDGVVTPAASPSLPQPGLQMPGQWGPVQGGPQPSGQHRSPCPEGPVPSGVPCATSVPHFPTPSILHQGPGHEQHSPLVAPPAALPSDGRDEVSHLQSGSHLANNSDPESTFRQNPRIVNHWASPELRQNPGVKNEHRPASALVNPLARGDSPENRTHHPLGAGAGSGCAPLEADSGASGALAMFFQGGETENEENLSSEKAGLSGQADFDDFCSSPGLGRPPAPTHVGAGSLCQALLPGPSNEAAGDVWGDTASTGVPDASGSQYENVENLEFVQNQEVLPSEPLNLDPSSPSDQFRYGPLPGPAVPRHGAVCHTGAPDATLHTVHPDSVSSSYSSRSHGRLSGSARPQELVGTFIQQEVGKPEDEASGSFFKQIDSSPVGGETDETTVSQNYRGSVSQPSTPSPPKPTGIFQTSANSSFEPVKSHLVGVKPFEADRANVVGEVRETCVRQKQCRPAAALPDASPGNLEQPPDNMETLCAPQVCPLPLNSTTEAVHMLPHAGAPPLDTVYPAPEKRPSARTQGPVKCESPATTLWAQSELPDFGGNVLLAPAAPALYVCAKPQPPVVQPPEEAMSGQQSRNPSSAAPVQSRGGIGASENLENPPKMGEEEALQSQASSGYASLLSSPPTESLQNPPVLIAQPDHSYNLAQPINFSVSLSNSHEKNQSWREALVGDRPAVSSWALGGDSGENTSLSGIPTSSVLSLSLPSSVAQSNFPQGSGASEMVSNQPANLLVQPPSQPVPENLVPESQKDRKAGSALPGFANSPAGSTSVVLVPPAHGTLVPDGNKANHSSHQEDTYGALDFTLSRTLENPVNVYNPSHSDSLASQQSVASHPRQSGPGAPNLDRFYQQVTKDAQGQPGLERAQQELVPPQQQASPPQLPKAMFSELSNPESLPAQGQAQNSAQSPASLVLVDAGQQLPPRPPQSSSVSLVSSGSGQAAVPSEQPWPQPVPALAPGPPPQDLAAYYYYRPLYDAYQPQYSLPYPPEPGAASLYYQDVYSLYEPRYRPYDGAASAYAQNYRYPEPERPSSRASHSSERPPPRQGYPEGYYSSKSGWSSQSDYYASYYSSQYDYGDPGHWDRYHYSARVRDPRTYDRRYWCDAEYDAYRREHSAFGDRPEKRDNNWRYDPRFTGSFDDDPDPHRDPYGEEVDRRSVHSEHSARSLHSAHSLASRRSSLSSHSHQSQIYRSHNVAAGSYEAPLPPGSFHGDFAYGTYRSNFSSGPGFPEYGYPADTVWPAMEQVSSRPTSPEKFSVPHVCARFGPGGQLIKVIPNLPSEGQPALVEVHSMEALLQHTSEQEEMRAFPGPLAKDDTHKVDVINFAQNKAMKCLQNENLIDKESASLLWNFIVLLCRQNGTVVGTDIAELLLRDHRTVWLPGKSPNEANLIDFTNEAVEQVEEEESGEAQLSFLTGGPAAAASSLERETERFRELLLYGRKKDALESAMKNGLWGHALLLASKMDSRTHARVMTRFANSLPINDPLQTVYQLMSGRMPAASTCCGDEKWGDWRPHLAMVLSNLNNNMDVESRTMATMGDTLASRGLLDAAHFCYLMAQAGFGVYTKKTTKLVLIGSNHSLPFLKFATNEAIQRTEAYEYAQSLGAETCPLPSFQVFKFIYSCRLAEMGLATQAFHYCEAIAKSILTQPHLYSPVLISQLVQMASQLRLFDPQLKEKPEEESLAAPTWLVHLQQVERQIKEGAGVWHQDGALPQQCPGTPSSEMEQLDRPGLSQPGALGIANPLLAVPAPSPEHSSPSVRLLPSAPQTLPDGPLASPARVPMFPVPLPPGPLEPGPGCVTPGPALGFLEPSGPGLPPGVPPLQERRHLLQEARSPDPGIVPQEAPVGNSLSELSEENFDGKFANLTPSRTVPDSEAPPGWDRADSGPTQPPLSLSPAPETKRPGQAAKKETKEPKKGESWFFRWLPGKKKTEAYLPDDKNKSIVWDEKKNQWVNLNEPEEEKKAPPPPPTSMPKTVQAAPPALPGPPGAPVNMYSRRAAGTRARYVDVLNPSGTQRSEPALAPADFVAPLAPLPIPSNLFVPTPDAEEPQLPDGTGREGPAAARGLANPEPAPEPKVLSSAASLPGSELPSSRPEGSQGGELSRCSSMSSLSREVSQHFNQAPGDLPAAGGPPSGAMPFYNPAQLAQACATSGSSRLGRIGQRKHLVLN

Assay [3] concerns the target T3, HeLa cell extract proteins (Homo sapiens, UniProt P34897).
T3 construct: endogenous in cells; host or cells: HeLa cell extract
T3 sequence (P34897 30-504): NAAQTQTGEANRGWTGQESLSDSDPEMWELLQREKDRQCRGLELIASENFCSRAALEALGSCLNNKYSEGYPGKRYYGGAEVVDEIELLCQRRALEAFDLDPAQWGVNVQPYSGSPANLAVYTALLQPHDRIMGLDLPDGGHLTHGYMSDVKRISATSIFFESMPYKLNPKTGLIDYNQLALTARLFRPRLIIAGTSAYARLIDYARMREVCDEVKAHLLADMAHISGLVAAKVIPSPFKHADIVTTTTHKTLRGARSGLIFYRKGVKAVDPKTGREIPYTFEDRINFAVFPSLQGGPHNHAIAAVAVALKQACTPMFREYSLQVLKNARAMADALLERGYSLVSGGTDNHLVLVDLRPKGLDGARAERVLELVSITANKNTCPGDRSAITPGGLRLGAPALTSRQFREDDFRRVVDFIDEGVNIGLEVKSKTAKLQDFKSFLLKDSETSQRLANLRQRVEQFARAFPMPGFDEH

Assay [4] has as its target T4, HeLa cell extract proteins (Homo sapiens, UniProt O43324).
T4 construct: endogenous in cells; host or cells: HeLa cell extract
T4 sequence (O43324 1-174): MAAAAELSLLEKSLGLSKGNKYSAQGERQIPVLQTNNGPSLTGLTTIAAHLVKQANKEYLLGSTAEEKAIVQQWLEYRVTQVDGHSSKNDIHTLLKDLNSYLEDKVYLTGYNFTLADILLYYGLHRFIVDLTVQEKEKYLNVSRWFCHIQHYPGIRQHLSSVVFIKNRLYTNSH

For assay [5], the target named is T5, HeLa cell extract proteins (Homo sapiens, UniProt P35270).
T5 construct: endogenous in cells; host or cells: HeLa cell extract
T5 sequence (P35270 whole entry): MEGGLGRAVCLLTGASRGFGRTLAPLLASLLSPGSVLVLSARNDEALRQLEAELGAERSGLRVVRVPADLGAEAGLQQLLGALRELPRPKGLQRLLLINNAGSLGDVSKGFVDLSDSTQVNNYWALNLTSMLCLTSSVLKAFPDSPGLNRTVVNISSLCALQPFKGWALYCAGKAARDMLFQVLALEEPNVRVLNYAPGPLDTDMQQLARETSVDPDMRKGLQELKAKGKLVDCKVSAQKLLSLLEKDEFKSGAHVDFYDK

Assay [6] deals with T6, HeLa cell extract proteins (Homo sapiens, UniProt Q9UHI6).
T6 construct: endogenous in cells; host or cells: HeLa cell extract
T6 sequence (Q9UHI6 1-824): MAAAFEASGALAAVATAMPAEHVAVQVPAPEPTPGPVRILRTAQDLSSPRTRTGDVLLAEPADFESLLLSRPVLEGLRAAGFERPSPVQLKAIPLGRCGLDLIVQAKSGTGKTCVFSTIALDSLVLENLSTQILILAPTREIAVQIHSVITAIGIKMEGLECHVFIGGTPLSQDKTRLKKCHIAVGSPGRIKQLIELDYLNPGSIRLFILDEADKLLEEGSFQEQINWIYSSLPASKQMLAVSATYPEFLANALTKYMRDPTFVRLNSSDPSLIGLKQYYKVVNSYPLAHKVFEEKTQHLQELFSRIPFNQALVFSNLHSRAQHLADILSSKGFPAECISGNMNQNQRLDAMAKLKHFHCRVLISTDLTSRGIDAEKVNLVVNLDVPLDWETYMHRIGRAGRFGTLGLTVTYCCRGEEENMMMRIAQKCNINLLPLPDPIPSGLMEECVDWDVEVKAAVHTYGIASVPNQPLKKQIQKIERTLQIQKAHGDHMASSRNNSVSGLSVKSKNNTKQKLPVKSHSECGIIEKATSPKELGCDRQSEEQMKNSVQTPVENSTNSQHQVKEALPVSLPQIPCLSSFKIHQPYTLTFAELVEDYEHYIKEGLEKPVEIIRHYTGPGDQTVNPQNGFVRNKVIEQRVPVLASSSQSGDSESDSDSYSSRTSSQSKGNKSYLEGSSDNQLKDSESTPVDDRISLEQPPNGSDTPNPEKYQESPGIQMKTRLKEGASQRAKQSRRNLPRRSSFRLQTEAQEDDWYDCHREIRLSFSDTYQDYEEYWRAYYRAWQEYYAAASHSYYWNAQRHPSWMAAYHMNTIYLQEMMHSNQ

The target in assay [7] is T7, HeLa cell extract proteins (Homo sapiens, UniProt P17980).
T7 construct: endogenous in cells; host or cells: HeLa cell extract
T7 sequence (P17980 whole entry): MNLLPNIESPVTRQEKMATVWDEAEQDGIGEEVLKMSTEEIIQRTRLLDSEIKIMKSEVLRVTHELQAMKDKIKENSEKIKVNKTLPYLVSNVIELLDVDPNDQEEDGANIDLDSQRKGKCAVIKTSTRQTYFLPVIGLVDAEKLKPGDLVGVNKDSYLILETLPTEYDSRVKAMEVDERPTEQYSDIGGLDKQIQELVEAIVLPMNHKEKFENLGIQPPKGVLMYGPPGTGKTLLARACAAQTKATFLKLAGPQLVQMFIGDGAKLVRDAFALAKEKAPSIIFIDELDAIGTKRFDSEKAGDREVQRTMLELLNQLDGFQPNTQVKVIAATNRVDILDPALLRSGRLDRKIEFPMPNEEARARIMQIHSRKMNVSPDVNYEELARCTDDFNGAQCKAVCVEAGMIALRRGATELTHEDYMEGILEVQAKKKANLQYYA

The target of assay [8] is T8, HeLa cell extract proteins (Homo sapiens, UniProt P08559).
T8 construct: endogenous in cells; host or cells: HeLa cell extract
T8 sequence (P08559 30-390): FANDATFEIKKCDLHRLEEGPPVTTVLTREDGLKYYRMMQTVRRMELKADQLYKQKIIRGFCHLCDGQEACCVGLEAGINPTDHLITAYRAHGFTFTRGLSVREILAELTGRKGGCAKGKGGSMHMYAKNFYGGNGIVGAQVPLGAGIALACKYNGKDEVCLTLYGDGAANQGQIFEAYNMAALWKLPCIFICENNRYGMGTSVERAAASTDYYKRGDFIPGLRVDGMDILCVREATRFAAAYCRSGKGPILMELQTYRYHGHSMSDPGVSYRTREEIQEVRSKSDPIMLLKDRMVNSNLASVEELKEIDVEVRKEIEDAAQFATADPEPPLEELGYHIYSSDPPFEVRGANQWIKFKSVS

The mark [9] stands for this setting: HeLa, protein SEC16A (HY[…] LOC9919).
Setting [10] is: HeLa, protein EEF1E1 (EUKARYOTIC TRANSLATION ELONGATION FACTOR 1 EPSILON-1).

T1 sequence (Q99873 whole entry): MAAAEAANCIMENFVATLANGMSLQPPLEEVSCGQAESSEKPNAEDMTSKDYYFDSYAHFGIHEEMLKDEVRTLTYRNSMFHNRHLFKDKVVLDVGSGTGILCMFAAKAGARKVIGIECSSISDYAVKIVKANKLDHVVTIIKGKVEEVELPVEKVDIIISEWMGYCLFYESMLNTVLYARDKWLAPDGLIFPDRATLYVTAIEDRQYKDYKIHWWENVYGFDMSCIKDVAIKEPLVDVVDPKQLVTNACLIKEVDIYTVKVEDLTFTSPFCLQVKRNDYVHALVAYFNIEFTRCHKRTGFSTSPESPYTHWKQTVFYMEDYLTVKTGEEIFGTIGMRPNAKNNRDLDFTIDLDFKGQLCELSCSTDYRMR

Take `Nc1nc2cccc(-c3ccccc3)c2n1Cc1ccc(Cl)c(Cl)c1` [compound 3]: the “fold changes relative to vehicle control” value in assay [1] (protein PRMT1, HeLa) is listed as 0.93; in assay [2] (HeLa, protein SEC16A), 1.19; in assay [3] (HeLa, protein SHMT2), 0.92; in assay [4] (protein EEF1E1, HeLa), 1.12; in assay [5] (protein SPR, HeLa) it was 1.12; in assay [6] (captured protein DDX20, HeLa), 0.92. Further, the “fold changes relative to vehicle control” value in assay [7] (protein PSMC3, HeLa) turned out to be 1.03; in assay [8] (HeLa, protein PDHA1) it was 1.07.

On to `NCCOCCOCC(=O)Nc1nc2ncc(CNc3ccc(C(=O)NC(CCC(=O)O)C(=O)O)cc3)nc2c(=O)[nH]1` (centres unmarked) [compound 6], for which the “fold changes relative to vehicle control” value in assay [1] (HeLa, protein PRMT1) is 0.95; in assay [2] (setting [9]), 1.13; in assay [3] (HeLa, protein SHMT2), 1.3; in assay [4], 1.02; in assay [5] (HeLa, protein SPR) it was 0.92; in assay [6] (HeLa, protein DDX20), 0.98. The “fold changes relative to vehicle control” value in assay [7] (protein PSMC3, HeLa) is on record as 1.17; in assay [8] (HeLa, captured protein PDHA1) it was 1.

As for `Nc1nc2[nH]cc(CCc3ccc(C(=O)N[C@@H](CCC(=O)O)C(=O)O)cc3)c2c(=O)[nH]1` [PTX, pemetrexed], the “fold changes relative to vehicle control” value is listed as 0.93 in assay [1]; 1.17 in assay [2]; 1.13 in assay [3]; 0.89 in assay [4]; 0.86 in assay [5]; 0.97 in assay [6]. For the same compound, the “fold changes relative to vehicle control” value is reported as 1 in assay [7] and 1.04 in assay [8].

As to `Nc1nc2c(c(=O)[nH]1)N(C=O)C(CNc1ccc(C(=O)N[C@@H](CCC(=O)O)C(=O)O)cc1)CN2` (some centres unmarked) [LEU, leucovorin], the “fold changes relative to vehicle control” value in assay [1] (HeLa, protein PRMT1) was found to be 0.94; in assay [2] (setting [9]), 1.25; in assay [3] (HeLa, protein SHMT2) it was 1.01; in assay [4] (setting [10]), 0.84; in assay [5] (HeLa, protein SPR) it was 0.92; in assay [6] (HeLa, protein DDX20) it was 0.93. Besides, the “fold changes relative to vehicle control” value in assay [7] (protein PSMC3, HeLa) was determined as 1.02; in assay [8] (HeLa, captured protein PDHA1), 1.06.

In the case of `CCCCCCOc1ccc(Cc2cnc(N)nc2N)cc1` [compound 1], the “fold changes relative to vehicle control” value was 0.95 in assay [1] (protein PRMT1, HeLa); 1 in assay [2] (HeLa, protein SEC16A); 0.8 in assay [3] (HeLa, protein SHMT2); 0.9 in assay [4] (protein EEF1E1, HeLa); 1.03 in assay [5] (protein SPR, HeLa); 0.89 in assay [6] (captured protein DDX20, HeLa). Besides, the “fold changes relative to vehicle control” value is 1.24 in assay [7] (protein PSMC3, HeLa) and 1.02 in assay [8] (HeLa, protein PDHA1).

As for `NCCCNc1ccc(C(=O)NC(CCC(=O)O)C(=O)O)cc1` (centres unmarked) [compound 7], the “fold changes relative to vehicle control” value in assay [1] (HeLa, protein PRMT1) amounted to 0.91; in assay [2] (HeLa, protein SEC16A (HYPOTHETICAL PROTEIN LOC9919)), 1.3; in assay [3] (HeLa, protein SHMT2) it was 1.02; in assay [4] (setting [10]), 0.98; in assay [5] (HeLa, protein SPR) it was 0.95; in assay [6] (HeLa, protein DDX20) it was 0.94. The “fold changes relative to vehicle control” value in assay [7] (protein PSMC3, HeLa) was 1.03; in assay [8] (HeLa, captured protein PDHA1), 0.99.

On to `CCCCCCOc1cccc(Cc2cnc(N)nc2N)c1` [compound 2], for which the “fold changes relative to vehicle control” value was determined as 1.24 in assay [1] (protein PRMT1, HeLa); 0.97 in assay [2] (HeLa, protein SEC16A); 1.53 in assay [3] (HeLa, protein SHMT2); 1.19 in assay [4] (protein EEF1E1, HeLa); 1.21 in assay [5] (protein SPR, HeLa); 1 in assay [6] (captured protein DDX20, HeLa). Besides, the “fold changes relative to vehicle control” value is reported as 1.46 in assay [7] (protein PSMC3, HeLa) and 0.4 in assay [8] (HeLa, protein PDHA1).
